# Assay results taken from patent US20060205673A1, “2-Amino-3-hydroxy-4-tert-leucyl-amino-5-phenyl-pentanoic acid amide derivatives” (priority 2000, published 2006).
# pIC50: −log10 of the molar value.
# Molecular target: T1, purified human placenta 20S proteasome (Homo sapiens, UniProt P28074)
# T1 construct: 1 μl purified human placenta 20S proteasome; tissue Diabetes Forschungsinstitut, Düsseldorf, Germany; host or cells: human placenta
# Assay: Inhibition of the chymotrypsin-like activity of the 20S proteasome (Suc-LLVY-AMC hydrolysis)
# Format: biochemical
# Conditions: Suc-LLVY-AMC substrate, 60 min preincubation at room temperature, Table 1
# From the text: It is based on the hydrolysis of the fluorogenic peptide Suc-LLVY-AMC (Succinyl-leucine-leucine-valine-tyrosine-7-amino-4-methyl-coumarin), which is cleaved exclusively at the Y-AMC bond by the 20S proteasome. Hydrolysis of this peptide is accompanied by an increase in fluorescence intensity [λex (excitation wavelength): 355 nm; λem (emission wavelength): 460 nm] due to release of the internally quenched […] fluorescence that accompanies diffusion apart of the hydrolysis product Suc-LLVY.
# 2 μl of a 1 mM solution of a test compound in DMSO (dimethylsulfoxide, 20 μM final concentration in the well) are preincubated for 60 min at room temperature in black 96-well microtiter plates together with a mixture of 1 μl purified human placenta 20S proteasome (Diabetes Forschungsinstitut, Düsseldorf, Germany; about 100 ng proteasome, depending on the proteasome preparation) and 47 μl buffer-Ca [5 mM CaCl2, 20 mM Tris/HCl (Tris-(hydroxymethyl)-amino-methane hydrochloride) pH 8.0]. 3 μl of a 2.67 mM solution of Suc-LLVY-AMC (Bachem, Switzerland) in DMSO (80 μM final concentration in the well) and 47 μl buffer-Ca are mixed and added. The resulting mixture is incubated for 3-24 h at 37° C. If desired, proteolysis of the substrate can be stopped by addition of 50 μl stop solution (100 mM monochloroacetic acid, 130 mM NaOH, 100 mM acetic acid, pH=4.3). The fluorescence is monitored with a FLUOROSKAN ASCENT™ microtiter plate reader.
# To each measure series two control experiments have to be carried out:
# 1.) 0% value: 2 μl DMSO are used in the above described assay instead of 2 μl of a 1 mM solution of a test compound in DMSO and 48 μl buffer-Ca instead of a mixture of 47 μl buffer-Ca and 1 μl purified proteasome.
# 2.) 100% value: in the above described assay 2 μl DMSO are used instead of 2 μl of a 1 mM solution of the test compound in DMSO.
# The IC50 value is defined as that concentration of a compound at which the remaining activity is 50%.
row,pIC50,Compound
1,6.82,"COc1ccc(CNC(=O)[C@@H](NC(=O)[C@H](NCc2ccc(OC)c(OC)c2)[C@H](O)[C@H](Cc2ccccc2)NC(=O)[C@@H](NC(=O)OCc2ccccc2)C(C)(C)C)C(C)C)c(O)c1 [Example 8, ((S)-1-{(1S,2R,3R)-1-Benzyl-3-(3,4-dimethoxy-benzylamino)-2-hydroxy-3-[(S)-1-(2-hydroxy-4-methoxy-benzylcarbamoyl)-2-methyl-propylcarbamoyl]-propylcarbamoyl}-2,2-dimethyl-propyl)-carbamic acid benzyl ester]"
2,7.00,"COc1ccc(CNC(=O)[C@@H](NC(=O)[C@H](NCc2ccc(OC)c(OC)c2OC)[C@H](O)[C@H](Cc2ccccc2)NC(=O)[C@@H](NC(=O)OCc2ccccc2)C(C)(C)C)C(C)C)c(O)c1 [Example 7, {(S)-1-[(1S,2R,3R)-1-Benzyl-2-hydroxy-3-[(S)-1-(2-hydroxy-4-methoxy-benzylcarbamoyl)-2-methyl-propylcarbamoyl]-3-(2,3,4-trimethoxy-benzylamino) -propylcarbamoyl]-2,2-dimethyl-propyl}-carbamic acid benzyl ester]"
3,6.70,"COc1ccc(CNC(=O)[C@@H](NC(=O)[C@H](NCc2cc(OC)c(OC)cc2OC)[C@H](O)[C@H](Cc2ccccc2)NC(=O)[C@@H](NC(=O)OCc2ccccc2)C(C)(C)C)C(C)C)c(O)c1 [Example 10, {(S)-1-[(1S,2R,3R)-1-Benzyl-2-hydroxy-3-[(S)-1-(2-hydroxy-4-methoxy-benzylcarbamoyl)-2-methyl-propylcarbamoyl]-3-(2,4,5-trimethoxy-benzylamino)-propylcarbamoyl]-2,2-dimethyl-propyl}-carbamic acid benzyl ester]"
4,6.82,"COc1ccc(CNC(=O)[C@@H](NC(=O)[C@H](NCc2cccc3ccccc23)[C@H](O)[C@H](Cc2ccccc2)NC(=O)[C@@H](NC(=O)Cc2cccc3ccccc23)C(C)(C)C)C(C)C)c(O)c1 [Example 15, (2R,3R,4S)-4-[(S)-3,3-Dimethyl-2-(2-naphthalen-1-yl-acetylamino)-butyrylamino]-3-hydroxy-2-[(naphthalen-1-ylmethyl)-amino]-5-phenyl-pentanoic acid [(S)-1-(2-hydroxy-4-methoxy-benzylcarbamoyl)-2-methyl-propyl]-amide]"
5,6.72,"COc1cc(CN[C@@H](C(=O)N[C@H](C(=O)NCc2ccc(OC)cc2O)C(C)C)[C@H](O)[C@H](Cc2ccccc2)NC(=O)[C@@H](NC(=O)OCc2ccccc2)C(C)(C)C)cc(OC)c1 [Example 9, ((S)-1-{(1S,2R,3R)-1-Benzyl-3-(3,5-dimethoxy-benzylamino)-2-hydroxy-3[(S)-1-(2-hydroxy-4-methoxy-benzylcarbamoyl)-2-methyl-propylcarbamoyl]-propylcarbamoyl}-2,2-dimethyl-propyl)-carbamic acid benzyl ester]"
6,7.96,"COc1ccc(CNC(=O)[C@@H](NC(=O)[C@H](NCc2cc(OC)c(OC)c(OC)c2)[C@H](O)[C@H](Cc2ccccc2)NC(=O)[C@@H](NC(=O)Cc2cccc3ccccc23)C(C)(C)C)C(C)C)c(O)c1 [Example 12, (2R,3R,4S)-4-[(S)-3,3-Dimethyl-2-(2-naphthalen-1-yl-acetylamino)-butyrylamino]-3-hydroxy-5-phenyl-2-(3,4,5-trimethoxy-benzylamino)-pentanoic acid [(S)-1-(2-hydroxy-4-methoxy-benzylcarbamoyl)-2-methyl-propyl]-amide]"
7,5.98,"COc1ccc(CNC(=O)[C@@H](NC(=O)[C@H](NCc2cc(OC)c(OC)c(OC)c2)[C@H](O)[C@H](Cc2ccccc2)NC(=O)[C@@H](NC(=O)OC(C)(C)C)C(C)(C)C)C(C)C)c(O)c1 [Example 11, {(S)-1-[(1S,2R,3R)-1-Benzyl-2-hydroxy-3-[(S)-1-(2-hydroxy-4-methoxy-benzylcarbamoyl)-2-methyl-propylcarbamoyl]-3-(3,4,5-trimethoxy-benzylamino)-propylcarbamoyl]-2,2-dimethyl-propyl}-carbamic acid tert-butyl ester]"
8,7.30,"COc1ccc(CNC(=O)[C@@H](NC(=O)[C@H](NCc2cc(OC)c(OC)c(OC)c2)[C@H](O)[C@H](Cc2ccccc2)NC(=O)[C@@H](NC(=O)OCc2ccccc2)C(C)(C)C)C(C)C)c(O)c1 [Example 6, {(S)-1-[(1S,2R,3R)-1-Benzyl-2-hydroxy-3-[(S)-1-(2-hydroxy-4-methoxy-benzylcarbamoyl)-2-methyl-propylcarbamoyl]-3-(3,4,5-trimethoxy-benzylamino)-propylcarbamoyl]-2,2-dimethyl-propyl}-carbamic acid benzyl ester]"
9,6.80,"COc1ccc(CNC(=O)[C@@H](NC(=O)[C@H](NCc2ccc(N(C)C)cc2)[C@H](O)[C@H](Cc2ccccc2)NC(=O)[C@@H](NC(=O)Cc2cccc3ccccc23)C(C)(C)C)C(C)C)c(O)c1 [Example 16, (2R,3R,4S)-2-(4-Dimethylamino-benzylamino)-4-[(S)-3,3-dimethyl-2-(2-naphthalen-1-yl-acetylamino)-butyrylamino]-3-hydroxy-5-phenyl-pentanoic acid [(S)-1-(2-hydroxy-4-methoxy-benzylcarbamoyl)-2-methyl-propyl]-amide]"
10,7.74,"COc1ccc(CNC(=O)[C@@H](NC(=O)[C@H](NCc2ccc(OC)c(OC)c2OC)[C@H](O)[C@H](Cc2ccccc2)NC(=O)[C@@H](NC(=O)Cc2cccc3ccccc23)C(C)(C)C)C(C)C)c(O)c1 [Example 13, (2R,3R,4S)-4-[(S)-3,3-Dimethyl-2-(2-naphthalen-1-yl-acetylamino)-butyrylamino]-3-hydroxy-5-phenyl-2-(2,3,4-trimethoxy-benzylamino)-pentanoic acid [(S)-1-(2-hydroxy-4-methoxy-benzylcarbamoyl)-2-methyl-propyl]-amide]"
11,5.82,"COc1cccc(CN[C@@H](C(=O)N[C@H](C(=O)NCc2ccc(OC)cc2O)C(C)C)[C@H](O)[C@H](Cc2ccccc2)NC(=O)[C@@H](NC(=O)OCc2ccccc2)C(C)(C)C)c1 [Example 4, {(S)-1-[(1S,2R,3R)-1-Benzyl-2-hydroxy-3-[(S)-1-(2-hydroxy-4-methoxy-benzylcarbamoyl)-2-methyl-propylcarbamoyl]-3-(3-methoxy-benzylamino)-propylcarbamoyl]-2,2-dimethyl-propyl}-carbamic acid benzyl ester]"
12,6.10,"COc1ccc(CN[C@@H](C(=O)N[C@H](C(=O)NCc2cc(Br)ccc2O)C(C)C)[C@H](O)[C@H](Cc2ccccc2)NC(=O)[C@@H](NC(=O)OCc2ccccc2)C(C)(C)C)cc1 [Example 3, {(S)-1-[(1S,2R,3R)-1-Benzyl-3-[(S)-1-(5-bromo-2-hydroxy-benzyl-carbamoyl)-2-methyl-propylcarbamoyl]-2-hydroxy-3-(4-methoxy-benzylamino)-propylcarbamoyl]-2,2-dimethyl-propyl}-carbamic acid benzyl ester]"
13,7.54,"COc1ccc(CNC(=O)[C@@H](NC(=O)[C@H](NCc2cc(OC)c(OC)cc2OC)[C@H](O)[C@H](Cc2ccccc2)NC(=O)[C@@H](NC(=O)Cc2cccc3ccccc23)C(C)(C)C)C(C)C)c(O)c1 [Example 14, (2R,3R,4S)-4-[(S)-3,3-Dimethyl-2-(2-naphthalen-1-yl-acetylamino)-butyrylamino]-3-hydroxy-5-phenyl-2-(2,4,5-trimethoxy-benzylamino)-pentanoic acid [(S)-1-(2-hydroxy-4-methoxy-benzylcarbamoyl)-2-methyl-propyl]-amide]"
14,6.22,"COc1ccc(CNC(=O)[C@@H](NC(=O)[C@H](NCc2ccc(N(C)C)cc2)[C@H](O)[C@H](Cc2ccccc2)NC(=O)[C@@H](NC(=O)OCc2ccccc2)C(C)(C)C)C(C)C)c(O)c1 [Example 2, ((S)-1-{(1S,2R,3R)-1-Benzyl-3-(4-dimethylamino-benzylamino)-2-hydroxy-3-[(S)-1-(2-hydroxy-4-methoxy-benzylcarbamoyl)-2-methyl-propylcarbamoyl]-propylcarbamoyl}-2,2-dimethyl-propyl)-carbamic acid benzyl ester]"
15,5.80,"COc1ccc(CNC(=O)[C@@H](NC(=O)[C@H](NCc2ccc(OC)cc2OC)[C@H](O)[C@H](Cc2ccccc2)NC(=O)[C@@H](NC(=O)OCc2ccccc2)C(C)(C)C)C(C)C)c(O)c1 [Example 5, ((S)-1-{(1S,2R,3R)-1-Benzyl-3-(2,4-dimethoxy-benzylamino)-2-hydroxy-3-[(S)-1-(2-hydroxy-4-methoxy-benzylcarbamoyl)-2-methyl-propylcarbamoyl]-propylcarbamoyl}-2,2-dimethyl-propyl)-carbamic acid benzyl ester]"
